Measurements as given in patent US20250281478A1, “METHODS FOR PREVENTING OR TREATING KIDNEY DISEASES” (JEAMOON BEIJING CO., LTD., priority 2022, published 2025).

Tested on: mice with sustained adenine-induced renal failure
Assay: Glomerular filtration rate in mice with sustained adenine-induced renal failure (TGFR system)
Type: in vivo, C57BL/6N mice
Conditions: 3 weeks continuous 0.25% adenine diet, FIG. 4
Procedure: • a) Control group: Fed with adenine-free feed; other procedures were the same as those in the model group. • b) Model group: Fed with feed containing 0.25% adenine for modelling. • c) LY-10 mg/kg group: Model+LY2922470 (10 mg/kg, p.o., QD). • d) LY-30 mg/kg group: Model+LY2922470 (30 mg/kg, p.o., QD). • e) LY-60 mg/kg group: Model+LY2922470 (60 mg/kg, p.o., QD). • f) TAK875 group: Model+TAK875 (30 mg/kg, p.o., QD).
Except for the control group, all other mice were fed with a diet containing 0.25% adenine for modelling. The control group was fed with a normal diet. All mice were allowed free access to food. One week after modeling, each group of mice was administered the respective treatment via oral gavage once daily in the afternoon for two consecutive weeks. The control group and the model group received vehicle under a same condition. The adenine-containing diet was continuously administered for modeling throughout the treatment period until the end of the experiment. The physical condition of the mice was monitored, and body weight was measured and recorded weekly. Blood samples were collected from the orbital venous plexus at 1 week (post-modeling) and 3 weeks (after 2 weeks of treatment). Serum was separated for the measurement of serum creatinine (CRE) and blood urea nitrogen (BUN). At the end of the two-week treatment, renal function of each group was assessed using a TGFR renal function monitoring and smart analysis system. After testing, tissues were collected from the mice to confirm the efficacy of the treatment.
Statistical analyses were performed using GraphPad Prism 8.0 software. Continuous data of each group were expressed as mean+SD. One-way ANOVA was used for multi-group comparisons, and Student's t-test was used for comparisons between two groups. A p-value<0.05 was considered statistically significant. For categorical data, chi-square tests were used to compare between groups, with p<0.05 indicating a statistically significant difference.
One week later, LY2922470 or TAK875 was administrated for treatment. […]

Compound: CC#C[C@@H](CC(=O)O)c1ccc(OCc2ccc(CN3CCCc4cccc(OC)c43)s2)cc1 [LY2922470]
- Renal function (GFR) improvement among the doses (LY2922470 30 mg/kg p.o. QD for 2 weeks): most significant improvement
- Renal function (GFR) compared with the model group (LY2922470 at different doses (10, 30, 60 mg/kg p.o. QD) for 2 weeks): improved
